# Assay results: US11873291B2, “Quinoline cGAS antagonist compounds” (ImmuneSensor Therapeutics, Inc., priority 2020, dated 2024)
# pIC50: −log10 of the molar value.
# Biological target: T1, recombinant human cGAS (aa147-522) (Homo sapiens, UniProt Q8N884)
# T1 construct: recombinant human cGAS (aa147-522); His6-SUMO (cleaved yes); made in house; host or cells: E. coli BL21/pLys
# Experiment: In vitro inhibition assay of cGAS activity (ATP consumption, KinaseGlo Max)
# Format: biochemical
# Conditions: Table 3, read-out: cGAS Inhibition Results IC50
# Outline: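 IC50 came from plotting % ATP consumption against log compound concentration, with leftover ATP detected by KinaseGlo Max chemiluminescence. Reactions ran 20 min at 37 °C with 1.5 μg/mL human cGAS (aa147-522), 6.6 μM ATP, 0.1 mM GTP and 0.01 mg/mL DNA at pH 7.5.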
# T1 sequence (Q8N884 147-522): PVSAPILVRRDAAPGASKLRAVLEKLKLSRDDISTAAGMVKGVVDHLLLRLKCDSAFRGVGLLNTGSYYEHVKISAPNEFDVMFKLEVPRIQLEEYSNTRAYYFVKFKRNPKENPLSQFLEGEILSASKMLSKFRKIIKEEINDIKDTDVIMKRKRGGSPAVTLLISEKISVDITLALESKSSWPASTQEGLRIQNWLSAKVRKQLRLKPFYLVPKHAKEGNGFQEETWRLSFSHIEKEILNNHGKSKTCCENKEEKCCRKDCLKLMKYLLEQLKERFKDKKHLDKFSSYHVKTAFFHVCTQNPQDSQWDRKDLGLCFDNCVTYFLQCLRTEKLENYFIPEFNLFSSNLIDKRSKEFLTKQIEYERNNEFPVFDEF
row,pIC50,Compound
1,> 5.70,"COC(=O)CNC(=O)O[C@@H]1CCN(c2cc(-n3ccnc3)c3ccc(Cl)c(Cl)c3n2)[C@@H]1C(=O)OC [I-653, methyl (2S,3R)-1-(7,8-dichloro-4-(1H-imidazol-1-yl)quinolin-2-yl)-3-(((2-methoxy-2-oxoethyl)carbamoyl)oxy)pyrrolidine-2-carboxylate]"
2,> 5.70,"O[C@@H]([C@@H]1CCCN1c1cc(-n2ccnc2)c2ccc(Cl)c(Cl)c2n1)C(F)(F)F [I-654, (S)-1-((S)-1-(7,8-dichloro-4-(1H-imidazol-1-yl)quinolin-2-yl)pyrrolidin-2-yl)-2,2,2-trifluoroethan-1-ol]"
3,> 5.70,"O[C@H]([C@@H]1CCCN1c1cc(-n2ccnc2)c2ccc(Cl)c(Cl)c2n1)C(F)(F)F [I-655, (R)-1-((S)-1-(7,8-dichloro-4-(1H-imidazol-1-yl)quinolin-2-yl)pyrrolidin-2-yl)-2,2,2-trifluoroethan-1-ol]"
4,< 4.52,"OC([C@@H]1CCCN1c1cc(-n2ccnc2)c2ccc(Cl)c(Cl)c2n1)(C(F)(F)F)C(F)(F)F [I-656, (S)-2-(1-(7,8-dichloro-4-(1H-imidazol-1-yl)quinolin-2-yl)pyrrolidin-2-yl)-1,1,1,3,3,3-hexafluoropropan-2-ol]"
5,> 5.70,"O=[PH](O)OC[C@@H]1CCCN1c1cc(-n2ccnc2)c2ccc(Cl)c(Cl)c2n1 [I-658, ((5)-1-(7,8-dichloro-4-(1H-imidazol-1-yl)quinolin-2-yl)pyrrolidin-2-yl)methyl hydrogen phosphonate]"
6,> 5.70,OC[C@@H]1CCN1c1cc(-n2ccnc2)c2ccc(Cl)c(Cl)c2n1 [I-659]
7,4.52 to 5.70,COC(=O)[C@@H]1c2ccccc2CN1c1cc(-n2ccnc2)c2ccc(Cl)c(Cl)c2n1 [I-660]
8,> 5.70,"O=C(O)[C@H](O)[C@@H]1CCCN1c1cc(-n2ccnc2)c2ccc(Cl)c(Cl)c2n1 [I-661, (R)-2-((S)-1-(7,8-dichloro-4-(1H-imidazol-1-yl)quinolin-2-yl)pyrrolidin-2-yl)-2-hydroxyacetic acid]"
9,4.52 to 5.70,COC(=O)C(O)[C@@H]1CCCN1c1cc(-n2ccnc2)c2ccc(Cl)c(Cl)c2n1 (stereo partly shown) [I-662]
10,> 5.70,"O=C(O)CCCCCOC[C@@H]1CCCN1c1cc(-n2ccnc2)c2ccc(Cl)c(Cl)c2n1 [I-675, (S)-6-((1-(7,8-dichloro-4-(1H-imidazol-1-yl)quinolin-2-yl)pyrrolidin-2-yl)methoxy)hexanoic acid]"
11,> 5.70,O=C(O)COC[C@@H]1[C@@H](O)CCN1c1cc(-n2ccnc2)c2ccc(Cl)c(Cl)c2n1 [I-697]
12,4.52 to 5.70,O=C(O)CCO[C@H]([C@@H]1CCCN1c1cc(-n2ccnc2)c2ccc(Cl)c(Cl)c2n1)C(F)(F)F [I-721]
13,> 5.70,"O=C(O)c1ccnn1C[C@@H]1CCCN1c1cc(-n2ccnc2)c2ccc(Cl)c(Cl)c2n1 [I-727, (S)-1-((1-(7,8-dichloro-4-(1H-imidazol-1-yl)quinolin-2-yl)pyrrolidin-2-yl)methyl)-1H-pyrazole-5-carboxylic acid]"
14,> 5.70,O=C(O)c1ccnn1CC[C@@H]1CCCN1c1cc(-n2ccnc2)c2ccc(Cl)c(Cl)c2n1 [I-729]
15,> 5.70,O=C(O)c1ccn(CC[C@@H]2CCCN2c2cc(-n3ccnc3)c3ccc(Cl)c(Cl)c3n2)n1 [I-731]
16,> 5.70,O=C(O)c1ccc(OC[C@@H]2CCCN2c2cc(-n3ccnc3)c3ccc(Cl)c(Cl)c3n2)cc1 [I-737]
17,> 5.70,O=C(O)Cc1ccc(OC[C@@H]2CCCN2c2cc(-n3ccnc3)c3ccc(Cl)c(Cl)c3n2)cc1 [I-738]
18,> 5.70,O=C(O)COC[C@H]1CCCN(c2cc(-c3cn[nH]c3)c3ccc(Cl)c(Cl)c3n2)C1 [I-746]
19,4.52 to 5.70,"CN(CCC(=O)O)C[C@@H]1CCCN1c1cc(-n2ccnc2)c2ccc(Cl)c(Cl)c2n1 [I-754, (S)-3-(((1-(7,8-dichloro-4-(1H-imidazol-1-yl)quinolin-2-yl)pyrrolidin-2-yl)methyl)(methyl)amino)propanoic acid]"

row,pIC50,Compound
1,4.52 to 5.70,"COC(=O)CCN(CCC(=O)OC)C[C@@H]1CCCN1c1cc(-n2ccnc2)c2ccc(Cl)c(Cl)c2n1 [I-757, dimethyl 3,3′-(((1-(7,8-dichloro-4-(1H-imidazol-1-yl)quinolin-2-yl)pyrrolidin-2-yl)methyl)azanediyl)(S)-dipropionate]"
2,> 5.70,"O=P(O)(O)CCOC[C@@H]1CCCN1c1cc(-n2ccnc2)c2ccc(Cl)c(Cl)c2n1 [I-763, (S)-(2-((1-(7,8-dichloro-4-(1H-imidazol-1-yl)quinolin-2-yl)pyrrolidin-2-yl)methoxy)ethyl)phosphonic acid]"
3,> 5.70,O=C(O)CO[C@@H]1CCN(c2cc(-n3ccnc3)c3ccc(Cl)c(Cl)c3n2)C1 [I-766]
4,4.52 to 5.70,O=C(O)CCO[C@@H]1CCN(c2cc(-n3ccnc3)c3ccc(Cl)c(Cl)c3n2)C1 [I-767]
5,4.52 to 5.70,COC(=O)CO[C@@H]1CCN(c2cc(-n3ccnc3)c3ccc(Cl)c(Cl)c3n2)C1 [I-768]
6,4.52 to 5.70,COC(=O)CCO[C@@H]1CCN(c2cc(-n3ccnc3)c3ccc(Cl)c(Cl)c3n2)C1 [I-769]
7,> 5.70,O=C(O)CO[C@H]1CCN(c2cc(-n3ccnc3)c3ccc(Cl)c(Cl)c3n2)C1 [I-770]
8,4.52 to 5.70,O=C(O)CCO[C@H]1CCN(c2cc(-n3ccnc3)c3ccc(Cl)c(Cl)c3n2)C1 [I-771]
9,4.52 to 5.70,O=C(O)CCOC[C@H]1CCN(c2cc(-n3ccnc3)c3ccc(Cl)c(Cl)c3n2)C1 [I-772]
10,> 5.70,"O=C(O)[C@@H]1CC[C@@H](CCO)N1c1cc(-n2ccnc2)c2ccc(Cl)c(Cl)c2n1 [I-783, (2S,5S)-1-(7,8-dichloro-4-(1H-imidazol-1-yl)quinolin-2-yl)-5-(2-hydroxyethyl)pyrrolidine-2-carboxylic acid]"
11,4.52 to 5.70,O=C(O)CCOC[C@H]1CCCCN1c1cc(-n2ccnc2)c2ccc(Cl)c(Cl)c2n1 [I-790]
12,> 5.70,"O=C(O)CCOC[C@@H]1CCC(=O)N1c1cc(-n2ccnc2)c2ccc(Cl)c(Cl)c2n1 [I-812, (S)-3-((1-(7,8-dichloro-4-(1H-imidazol-1-yl)quinolin-2-yl)-5-oxopyrrolidin-2-yl)methoxy)propanoic acid]"
13,4.52 to 5.70,O=C(O)CCOC(C(=O)O)[C@@H]1CCCN1c1cc(-n2ccnc2)c2ccc(Cl)c(Cl)c2n1 (stereo partly shown) [I-818]
14,> 5.70,"O=C(O)C#CC[C@@H]1CCCN1c1cc(-n2ccnc2)c2ccc(Cl)c(Cl)c2n1 [I-819, (S)-4-(1-(7,8-dichloro-4-(1H-imidazol-1-yl)quinolin-2-yl)pyrrolidin-2-yl)but-2-ynoic acid]"
15,< 4.52,"O=C(O)CCOC[C@@H]1CCCN1c1cc(N2CC[C@@H](O)C2)c2ccc(Cl)c(Cl)c2n1 [I-821, 3-(((S)-1-(7,8-dichloro-4-((R)-3-hydroxypyrrolidin-1-yl)quinolin-2-yl)pyrrolidin-2-yl)methoxy)propanoic acid]"
16,< 4.52,"Nc1ccc(-c2cc(N3CCC[C@H]3COCCC(=O)O)nc3c(Cl)c(Cl)ccc23)cn1 [I-822, (S)-3-((1-(4-(6-aminopyridin-3-yl)-7,8-dichloroquinolin-2-yl)pyrrolidin-2-yl)methoxy)propanoic acid]"
17,< 4.52,O=C(O)CCOC[C@@H]1CCCN1c1cc(-c2cc[nH]n2)c2ccc(Cl)c(Cl)c2n1 [I-823]
18,< 4.52,O=C(O)CCOC[C@@H]1CCCN1c1cc(-c2ccoc2)c2ccc(Cl)c(Cl)c2n1 [I-824]
